Reference: PMC8343220, “The selectivity of α‐adrenoceptor agonists for the human α1A, α1B, and α1D‐adrenoceptors” (Pharmacology Research & Perspectives, 2021)

Legend:
[1] = biological target: T1, human α1D‐adrenoceptor (full length) (Homo sapiens, UniProt P25100); test: ^3H‐cAMP accumulation, CHO‐α1D cells; format: cell-based; conditions: cAMP accumulation without forskolin
T1 construct: human α1D‐adrenoceptor (full length) were used; expressed in transfected cells; host or cells: CHO-K1
T1 sequence (P25100 1-572): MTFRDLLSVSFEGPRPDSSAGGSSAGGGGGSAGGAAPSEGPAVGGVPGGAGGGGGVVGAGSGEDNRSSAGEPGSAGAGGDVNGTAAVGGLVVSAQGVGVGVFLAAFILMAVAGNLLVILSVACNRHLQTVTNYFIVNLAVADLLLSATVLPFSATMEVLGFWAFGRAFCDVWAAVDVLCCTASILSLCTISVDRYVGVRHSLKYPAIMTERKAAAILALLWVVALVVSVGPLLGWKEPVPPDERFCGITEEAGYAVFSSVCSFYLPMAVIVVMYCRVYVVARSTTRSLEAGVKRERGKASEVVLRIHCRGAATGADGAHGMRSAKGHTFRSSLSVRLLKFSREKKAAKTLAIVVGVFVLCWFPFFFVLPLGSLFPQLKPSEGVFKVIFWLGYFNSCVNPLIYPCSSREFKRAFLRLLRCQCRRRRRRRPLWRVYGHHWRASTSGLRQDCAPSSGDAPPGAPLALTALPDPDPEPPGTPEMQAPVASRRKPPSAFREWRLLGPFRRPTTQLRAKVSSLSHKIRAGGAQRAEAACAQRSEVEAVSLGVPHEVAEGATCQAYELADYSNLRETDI

[2] = system: parental CHO cell line without any transfected receptors; test: ERK1/2‐phosphorylation, parent CHO cells without transfected receptors; format: cell-based, Chinese hamster; conditions: for Emax at 100 µM: Cricetulus griseus, CHO, read-out: ERK1/2-phosphorylation % PDBu at 100μM; for ERK1/2-phosphorylation % PDBu: maximal response as % of PDBu (10μM) response; for ERK1/2-phosphorylation % PDBu / ERK1/2-phosphorylation Log EC50: mean ± s.e.m.
human α1A‐adrenoceptor = biological target: T2, human α1A‐adrenoceptor (Homo sapiens, UniProt P35348); test: Intracellular free calcium mobilization, CHO‐α1A cells; format: cell-based; conditions: CHO‐α1A cells; for Log efficacy ratio KD /EC50: binding KD and calcium EC50; for EC50: given as log EC50 (negative), read-out: Intracellular calcium release Log EC50 (converted); for Intracellular calcium release % ionomycin: maximal response as % of 10 µM ionomycin
T2 construct: expressed in transfected cells; host or cells: CHO-K1
T2 sequence (P35348 1-466): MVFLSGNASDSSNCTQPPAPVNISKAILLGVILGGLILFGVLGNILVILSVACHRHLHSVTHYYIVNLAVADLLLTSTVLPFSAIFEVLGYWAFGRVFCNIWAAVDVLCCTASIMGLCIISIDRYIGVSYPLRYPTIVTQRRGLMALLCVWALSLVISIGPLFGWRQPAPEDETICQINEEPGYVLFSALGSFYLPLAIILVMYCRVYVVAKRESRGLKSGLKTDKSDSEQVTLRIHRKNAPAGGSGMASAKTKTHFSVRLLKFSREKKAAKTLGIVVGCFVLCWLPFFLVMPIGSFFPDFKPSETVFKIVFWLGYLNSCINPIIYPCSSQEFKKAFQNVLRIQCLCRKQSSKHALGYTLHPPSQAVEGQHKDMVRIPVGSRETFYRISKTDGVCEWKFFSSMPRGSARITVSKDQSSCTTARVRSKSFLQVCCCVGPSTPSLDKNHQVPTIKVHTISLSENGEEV

[3] = biological target: T1, human α1D‐adrenoceptor (full length); test: ERK1/2‐phosphorylation (Surefire Alphascreen), CHO‐α1D cells; format: cell-based; conditions: CHO‐α1D cells; for EC50: read-out: ERK1/2‐phosphorylation Log EC50 (converted); for ERK1/2‐phosphorylation % PDBu: maximal response as % of PDBu
human α1B‐adrenoceptor = biological target: T3, human α1B‐adrenoceptor (Homo sapiens, UniProt P35368); test: ^3H‐cAMP accumulation, CHO‐α1B cells; format: cell-based; conditions: CHO‐α1B cells; for cAMP accumulation % forskolin: % forskolin maximum response; for EC50: read-out: cAMP accumulation Log EC50 (converted); for cAMP accumulation % forskolin at 100 µM: response at 100 µM ligand (no EC50 given)
T3 construct: expressed in transfected cells; host or cells: CHO-K1
T3 sequence (P35368 1-520): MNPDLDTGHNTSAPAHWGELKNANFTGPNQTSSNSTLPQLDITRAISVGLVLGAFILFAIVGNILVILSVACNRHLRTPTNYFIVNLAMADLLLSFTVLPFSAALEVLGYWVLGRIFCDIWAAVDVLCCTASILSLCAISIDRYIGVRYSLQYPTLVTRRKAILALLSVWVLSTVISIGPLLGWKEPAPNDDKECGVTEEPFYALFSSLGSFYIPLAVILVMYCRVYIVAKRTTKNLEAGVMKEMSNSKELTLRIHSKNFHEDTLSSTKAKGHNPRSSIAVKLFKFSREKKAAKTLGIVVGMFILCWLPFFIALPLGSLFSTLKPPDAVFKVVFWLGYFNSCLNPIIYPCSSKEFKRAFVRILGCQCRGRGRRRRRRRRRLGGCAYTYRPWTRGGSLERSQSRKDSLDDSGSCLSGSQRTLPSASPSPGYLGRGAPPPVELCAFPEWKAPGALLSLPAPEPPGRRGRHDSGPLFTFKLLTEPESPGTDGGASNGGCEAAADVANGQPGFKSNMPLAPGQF

[4] = system: parental CHO cell line without any transfected receptors; test: Intracellular calcium mobilization, parent CHO cells without transfected receptors; format: cell-based, Chinese hamster; conditions: Cricetulus griseus; CHO cells without transfected receptors; response at maximum concentration used (c2), as % of ionomycin (10μM) response; mean ± s.e.m.; read-out: Intracellular calcium release % ionomycin
[5] = CHO cells without transfected receptors

Row | cAMP Log EC50 [1] | Log efficacy ratio KD /EC50 (human α1A‐adrenoceptor) | EC50 (human α1A‐adrenoceptor) | Intracellular calcium release % ionomycin (human α1A‐adrenoceptor) | EC50 ([3]; log values given negative) | ERK1/2‐phosphorylation % PDBu [3] | cAMP accumulation % forskolin (human α1B‐adrenoceptor) | EC50 (human α1B‐adrenoceptor) | ERK1/2‐phosphorylation Log EC50 ([3]; log values given negative) | cAMP accumulation % forskolin at 100 µM (human α1B‐adrenoceptor) | cAMP accumulation Log EC50 (human α1B‐adrenoceptor) | SMILES | Emax at 100 µM [2] | ERK1/2-phosphorylation % PDBu [2, 5] | ERK1/2-phosphorylation Log EC50 [2, 5] | ERK1/2-phosphorylation % PDBu at 10μM ([2]; CHO cells without transfected receptors, response at 10μM only, EC50 not obtainable, % of PDBu (10μM)) | Emax [4]
1 | No response | 2.39 | 1.17 nM | 50.9 ± 2.6% | 13.8 µM | 33.0 ± 4.7% | 3.9 ± 0.7% | 12.9 nM | – | – | – | c1ccc2c(CC3=NCCN3)cccc2c1 [Naphazoline] | 9.2 ± 3.3% | – | – | – | –
2 | – | 1.98 | 36.3 nM | 53.5 ± 1.6% | – | No response | 10.7 ± 1.5% | 708 nM | No response | – | – | Clc1ccc2nsnc2c1NC1=NCCN1 [Tizanidine] | 6.7 ± 3.3% | – | – | – | –
3 | No response | 3.14 | 61.7 nM | 66.9 ± 3.2% | 2.69 µM | 20.5 ± 3.0% | – | – | – | 42.0 ± 5.1% | – | C[C@H](N)[C@H](O)c1cccc(O)c1 [Metaraminol] | – | No response | No response | – | –
4 | No response | 3.43 | 8.71 nM | 55.9 ± 2.3% | 8.32 µM | 14.2 ± 3.9% | – | – | – | 24.2 ± 4.6% | – | COc1ccc(OC)c(C(O)C(C)N)c1 (stereo not shown) [Methoxamine] | – | No response | No response | – | –

The remaining lines, values behind:

Row | SMILES | cAMP Log EC50 [1] | Log efficacy ratio KD /EC50 (human α1A‐adrenoceptor) | EC50 (human α1A‐adrenoceptor) | Intracellular calcium release % ionomycin (human α1A‐adrenoceptor) | EC50 ([3]; log values given negative) | ERK1/2‐phosphorylation % PDBu [3] | cAMP accumulation % forskolin (human α1B‐adrenoceptor) | EC50 (human α1B‐adrenoceptor) | ERK1/2‐phosphorylation Log EC50 ([3]; log values given negative) | cAMP accumulation % forskolin at 100 µM (human α1B‐adrenoceptor) | cAMP accumulation Log EC50 (human α1B‐adrenoceptor) | Emax at 100 µM [2] | ERK1/2-phosphorylation % PDBu [2, 5] | ERK1/2-phosphorylation Log EC50 [2, 5] | ERK1/2-phosphorylation % PDBu at 10μM ([2]; CHO cells without transfected receptors, response at 10μM only, EC50 not obtainable, % of PDBu (10μM)) | Emax [4]
5 | CC(CCc1ccc(O)cc1)NCCc1ccc(O)c(O)c1 (stereo not shown) [Dobutamine] | No response | 2.04 | 4.17 nM | 31.3 ± 3.6% | 0.891 µM | 26.2 ± 7.5% | No response | – | – | – | No response | – | – | – | 16.4 ± 5.9% | –
6 | N=C(N)NC(=O)Cc1c(Cl)cccc1Cl [Guanfacine] | No response | 1.95 | 52.5 nM | 56.8 ± 2.2% | 6.92 µM | 16.1 ± 4.0% | 39.0 ± 5.8% | 1620 nM | – | – | – | 2.5 ± 1.7% | – | – | – | 11.5 ± 2.9%
7 | CCNCC(O)c1cccc(O)c1 (stereo not shown) [Etilefrine] | No response | 3.12 | 77.6 nM | 58.1 ± 2.1% | 1.51 µM | 16.8 ± 2.0% | – | – | – | 73.4 ± 7.1% | – | – | No response | No response | – | –
8 | c1ccc(C2CC2)c(OCC2=NCCN2)c1 [Cirazoline] | No response | 3.01 | 0.661 nM | 58.2 ± 2.0% | 3.8 µM | 36.5 ± 3.2% | 11.4 ± 2.4% | 120 nM | – | – | – | 33.4 ± 7.6% | – | – | – | 4.5 ± 0.8%
